One may read the ED50 as the dose that gives a 50% effect, or the effect in half of the subjects. One may read the IC50 as the concentration that gives 50% inhibition.

Assay [1] concerns tetrabenazine induced ptosis. Nature of the assay: Tetrabenazine ptosis antagonism. Format: in vivo. The following applies: Mus musculus, ip, 0.5 h; i.p., mice; tetrabenazine 40 mg/kg i.p. 30 min after test substance. How it is done: For insoluble substances the doses 0, 1/8, 1/32 and 1/128 of "i.^p. LD50" are used. 3 mice are used for each dose level. Thirty minutes after administration of test substance, tetrabenazine, 40 mg/kg, is injected i.p. Ptosis is evaluated 30 minutes after administration of tetrabenazine, the following rating scale being used: 0 = normal eyes, 1=1/4 closed eyes, 2 = 1/2 closed eyes, 3 = 3/4 closed eyes and 4 = completely closed eyes. Ptosis is evaluated 30 seconds after tilting the cage 3 times. The tilting is carried out in such a way that the animals slide along the floor of the cage.
The results are recorded as % inhibition of ptotic score calculated on the basis of the score of the control group. If ptotic score for the control group is < 10 the test is rejected and another is performed. The registration can also be done as an on line procedure.

The subject of assay [2] is potentiation of 5-HTP. Nature of the assay: 5-HTP potentiation (5-HTP syndrome). The assay is classed as in vivo. The following applies: Mus musculus, ip, 0.5 h; i.p., mice; 5-HTP 100 mg/kg i.v. 30 min after test substance; read-out: 5-HTP potentation,ED50. The method, then: The test substance is given i.p. or p.o. in the doses 10, 10, 2.5, 0.63 and 0 mg/kg. Three mice are used for each dose level. One of the groups on the highest dose is used as control of the compounds own effect. […] Thirty minutes after administration of test substance, 5-HTP, 100 mg/kg i.v. is given (injection time 5-10 sec.). After this 5-HTP dose the animals remain unaffected. If the animals have been pretreated with a substance, which inhibits the re-uptake of 5-HT, a 5-HTP syndrome will occur. This is characterized by the following symptoms: 1) excitation, 2) tremor, and 3) abduction of the hind limbs.
After the administration of 5-HTP the animals are observed for 15 minutes and each animal is given one point for each symptom present. Thus, the maximal score for a group consisting of 3 mice is 9.
The results are stated as fractions: 0/9, 1/9, 2/9 ..... 8/9, 9/9, where 0, 1, 2 ..... 8, 9 are the number of points per group after the dose in question.

The target in assay [3] is T1, ^3H-DA uptake in striatal synaptosomes (Rattus norvegicus, UniProt P23977).
T1 construct: the two corpura striata are dissected out and gently homogenized; from tissue; host or cells: rat corpus striatum, synaptosomal P2 fraction
T1 sequence (P23977 whole entry): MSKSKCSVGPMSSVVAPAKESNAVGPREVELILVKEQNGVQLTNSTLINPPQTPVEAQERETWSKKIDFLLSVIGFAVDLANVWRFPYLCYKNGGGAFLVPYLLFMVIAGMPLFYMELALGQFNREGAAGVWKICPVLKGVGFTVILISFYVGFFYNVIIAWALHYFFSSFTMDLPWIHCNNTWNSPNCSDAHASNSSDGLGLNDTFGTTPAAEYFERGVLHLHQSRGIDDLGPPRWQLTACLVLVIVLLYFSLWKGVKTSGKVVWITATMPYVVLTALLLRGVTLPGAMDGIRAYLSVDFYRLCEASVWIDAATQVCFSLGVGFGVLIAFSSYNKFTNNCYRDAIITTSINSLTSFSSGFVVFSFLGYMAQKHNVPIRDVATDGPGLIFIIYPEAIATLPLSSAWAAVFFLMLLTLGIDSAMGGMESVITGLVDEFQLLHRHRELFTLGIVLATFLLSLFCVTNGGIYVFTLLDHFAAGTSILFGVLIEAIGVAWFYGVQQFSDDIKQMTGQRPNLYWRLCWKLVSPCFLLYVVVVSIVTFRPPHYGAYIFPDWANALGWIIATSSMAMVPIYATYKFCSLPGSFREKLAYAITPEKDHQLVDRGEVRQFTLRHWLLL
Nature of the assay: biochemical. Format: biochemical, Rats. The conditions noted are these: read-out: Uptake Inhibition IC50 DA. The method, then: ^3H-DA uptake in striatal synaptosomes in vitro.
(§1) 0.32 M sucrose containing 1 mM Nialamide
Krebs-Ringer-phosphate buffer, pH 7.4
3,4-dihydroxyphenylethylamine [ethyl-1-^3H(N)] = ^3H-DA, spc. act. app. 15 Ci/mmol, New England Nuclear
(§2) Thomas Tissue Grinder, clearance 0.004-0.006 inch.
Rats are killed by a blow to their head, exsanguinated and their brains removed. The brain is placed on a precooled glassplate, and the two corpura striata are dissected out and gently homogenized in 40 volumes of ice cold 0.32 M sucrose containing 1 mM of nialamide using a hand homogenizer with teflon pestle. The P2-fraction (synaptosomal fraction) is obtained by centrifugation (600 g, 10 min., 25000 g, 55 min. 4 °C) and suspended in 40 volumes of a modified Krebs-Ringer-phosphate buffer, pH 7.4. To 200µl of the synaptosomal fraction on ice are added 3700 µl modified Krebs-Ringer-phosphate buffer - containing test compounds. After a preincubation at 37°C for 5 min. […] The incubation is terminated by filtering the samples under vacuum through Millipore filters with a wash of 5 ml buffer containing 10 µM of unlabelled DA. After solubilizing the filters in 1 ml of cellosolve the radioactivity is determined by liquid scintillation counting after the addition of 10 ml of Insta-Gel. The unspecific binding of ^3H-DA is determined by incubating control samples on ice instead of at 37 °C.
All experiments are performed in ttriplicate.
The mean of all control samples and ice samples are calculated.

The target of assay [4] is T2, ^3H-5-HT uptake in synaptosomes (Rattus norvegicus, UniProt P31652).
T2 construct: Rest of the brain is gently homogenized (glass teflon homogenizer); from tissue; host or cells: rat brain without cerebellum, pons and medulla oblongata, synaptosomal P2 fraction
T2 sequence (P31652 whole entry): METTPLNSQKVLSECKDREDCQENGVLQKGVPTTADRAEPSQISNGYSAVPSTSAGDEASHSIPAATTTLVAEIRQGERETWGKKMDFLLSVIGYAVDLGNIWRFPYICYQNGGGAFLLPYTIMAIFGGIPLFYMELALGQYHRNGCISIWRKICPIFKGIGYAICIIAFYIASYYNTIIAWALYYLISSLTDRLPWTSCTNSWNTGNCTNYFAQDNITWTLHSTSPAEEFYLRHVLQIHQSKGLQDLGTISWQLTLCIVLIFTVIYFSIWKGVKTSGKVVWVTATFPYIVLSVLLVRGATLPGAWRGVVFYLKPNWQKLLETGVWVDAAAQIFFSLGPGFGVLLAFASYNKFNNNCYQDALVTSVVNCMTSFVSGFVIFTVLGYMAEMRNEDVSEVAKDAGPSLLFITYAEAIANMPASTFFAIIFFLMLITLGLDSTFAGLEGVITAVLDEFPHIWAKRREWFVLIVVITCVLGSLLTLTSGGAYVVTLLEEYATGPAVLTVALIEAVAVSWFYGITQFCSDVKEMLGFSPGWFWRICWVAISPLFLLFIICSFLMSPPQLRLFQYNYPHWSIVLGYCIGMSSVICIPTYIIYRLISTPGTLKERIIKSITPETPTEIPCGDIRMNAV
Description: Inhibition of 3H-5-HT uptake in synaptosomes in vitro. The assay is classed as biochemical, Rats. The method, then:
Inhibition of ^3H-5-HT uptake in synaptosomes in vitro.
as §1
Krebs-Ringer-Phosphate buffer, pH 7.4
Millipore filters (HAWPO 2500, 0.45 µ)
5-hydroxy [G-^3H] tryptamine creatinine sulphate = ^3H-5-HT, spc. act. app. 10 Ci/mmol, The Radiochemical Centre, Amersham.
as §2
Rats are killed by a blow on the head and exsanguinated. The brain is quickly removed, rinsed for blood and placed on a cold plate. The cerebellum, pons and medulla oblongata are removed. Rest of the brain is gently homogenized (glass teflon homogenizer) in 40 volumes of ice cold 0.32 M of sucrose containing 1 mM of nialamide. The P2 fraction (synaptosomal fraction) is obtained by centrifugation (600 g, 10 min. and 25000 g, 55 min., 4°C) and suspended in 40 volumes of a modified Krebs-Ringer-Phosphate buffer, pH 7.4.
To 200µl of the synaptosomal suspension on ice are added 3700 µl modified Krebs-Ringer-phosphate buffer, pH 7.4, containing test substances. After preincubation at 37°C for 5 min., 100 µl of ^3H-5-HT (final concentration in the samples = 10 nM) are added and the samples are incubated for 10 min. at 37 °C. The incubation is terminated by filtering the samples under vacuum through Millipore filters with a wash of 5 ml buffer containing 10 µM of unlabelled 5-HT. After solubilizing the filters in I ml of cellosolve, 10 ml of Instagel are added, and the radioactivity is determined by liquid and scintillation counting. The unspecific binding and passive transport of ^3H-5-HT is determined by incubating control samples on ice instead of at 37°C. All experiments are performed in triplicate. The mean of all control samples are calculated.
The IC50- values are determined as the concentrations, at which the uptake are 50 per cent of the uptake in control sample -uptake in ice samples.

Where [5] appears, read: rat striatal synaptosomes, 3H-DA 12.5 nM.
[6] abbreviates: rat brain synaptosomes, 3H-5-HT 10 nM, read-out: Uptake Inhibition IC50 5-HT.

Like-named read-outs stand apart in the source and are kept apart here. Bounds are passed on as bounds.

As for `CN(C)C1CC(c2ccc(Cl)cc2Cl)c2ccccc21` (centres unmarked) [Lu 18-137-c], the figures for the ED50 in assay [1] and in assay [2] were 23 µmol/kg and 19 µmol/kg, respectively. The IC50 is 860 nM in assay [3] (setting [5]) and 0.03 nM in assay [4] (setting [6]).
As for `CSc1ccc2c(c1)C(N(C)C)CC2c1ccc(F)cc1` (centres unmarked) [Lu 19-017-c], the 50% effective dose (ED50) in assay [1] turned out to be 27 µmol/kg; in assay [2] it was 23 µmol/kg. The results for the IC50 in assay [3] (setting [5]) and in assay [4] (setting [6]) were 150 nM and less than 1 nM, respectively.
With `CN(C)C1CC(c2ccccc2)c2ccccc21` (centres unmarked) [Lu 19-025-c, reference compound], the median effective dose (ED50) in assay [1] was more than 143 µmol/kg; in assay [2], more than 36 µmol/kg. The figures for the IC50 in assay [3] and in assay [4] (setting [6]) were 340 nM and 9.5 nM, respectively.
Turning to `CSc1ccc2c(c1)[C@H](N(C)C)C[C@H]2c1ccc(F)cc1` (relative stereo) [Lu 19-016-c], the 50% effective dose (ED50) in assay [1] was determined as 35 µmol/kg; in assay [2] it was 39 µmol/kg. Moreover, the IC50 in assay [3] (setting [5]) stood at 170 nM; in assay [4] (setting [6]), 4.5 nM.
In the same order, the values of `CN(C)C1CC(c2ccc(F)cc2)c2ccc(F)cc21` (centres unmarked) [Lu 18-147] are more than 147 µmol/kg, 21 µmol/kg, 440 nM and 1.2 nM.
In the case of `CN(C)C1CC(c2ccc(F)cc2)c2ccc(C(F)(F)F)cc21` (centres unmarked) [Lu 18-150-c], the median effective dose (ED50) was more than 111 µmol/kg in assay [1] and 101 µmol/kg in assay [2]. The IC50 in assay [3] (setting [5]) was determined as 340 nM; in assay [4] (setting [6]), 4.3 nM.
On to `Cc1ccc2c(c1)[C@H](N(C)C)C[C@H]2c1ccc(F)cc1` (relative stereo) [Lu 18-125-c], for which the ED50 in assay [1] turned out to be 41 µmol/kg; in assay [2] it was 44 µmol/kg. In addition, the values for the half-maximal inhibitory concentration (IC50) in assay [3] (setting [5]) and in assay [4] (setting [6]) were 100 nM and 9.8 nM, respectively.
For the molecule `Cc1ccc2c(c1)C(N(C)C)CC2c1ccc(F)cc1` (centres unmarked) [Lu 18-119], the ED50 is 45 µmol/kg in assay [1] and more than 37 µmol/kg in assay [2]. The half-inhibitory concentration (IC50) in assay [3] (setting [5]) turned out to be 71 nM; in assay [4] (setting [6]), 1.4 nM.
For the molecule `CN(C)C1CC(O)(c2ccc(Cl)c(Cl)c2)c2ccccc21` (centres unmarked) [Lu 19-034, N,N-Dimethyl-3-(3,4-dichlorophenyl)-3-hydroxy-1-indanamine], the ED50 is 9 µmol/kg in assay [1] and 11 µmol/kg in assay [2]. For the same molecule, the concentration for half-maximal inhibition (IC50) in assay [3] (setting [5]) came out at 130 nM; in assay [4], 1.7 nM.
`CN(C)C1CC(c2ccc(Cl)c(Cl)c2)c2ccccc21` (centres unmarked) [Lu 18-122-c]: the figures for the median effective dose (ED50) in assay [1] and in assay [2] were 14 µmol/kg and 10 µmol/kg, respectively. The IC50 in assay [3] (setting [5]) came to 27 nM; in assay [4] (setting [6]) it was 0.37 nM.
As for `CN(C)[C@@H]1C[C@@H](c2ccc(N)cc2)c2ccc(F)cc21` (relative stereo) [Lu 19-021], the median effective dose (ED50) in assay [1] was 9 µmol/kg; in assay [2], 15 µmol/kg. Moreover, the values for the IC50 in assay [3] (setting [5]) and in assay [4] (setting [6]) were 190 nM and 330 nM, respectively.

Source of the values: patent publication EP0076669A1, “Novel 3-phenyl-1-indanamines, pharmaceutical compositions and methods of preparation” (KEFALAS A/S, priority 1981, dated 1983).
